Experiments:
[1] = tested on: Diabrotica balteata (Corn root worm); assay: Example B1: Diabrotica balteata (Corn root worm), sprayed maize sprouts; type: in vivo; settings: 96 h, application rate 200 ppm, L2 larvae, 4 days after infestation, read-out: control in at least one of the two categories (mortality or growth inhibition)
Description: Example B1: Diabrotica balteata (Corn root worm)
Maize sprouts placed onto an agar layer in 24-well microtiter plates were treated with aqueous test solutions prepared from 10′000 ppm DMSO stock solutions by spraying. After drying, the plates were infested with L2 larvae (6 to 10 per well). The samples were assessed for mortality and growth inhibition in comparison to untreated samples 4 days after infestation.
(§1) The following compounds gave an effect of at least 80% control in at least one of the two categories (mortality or growth inhibition) at an application rate of 200 ppm: […]

[2] = tested on: Chilo suppressalis (Striped rice stemborer); assay: Example B4: Chilo suppressalis (Striped rice stemborer), artificial diet; type: in vivo; settings: 144 h, application rate 200 ppm, L2 larvae, 6 days after infestation, read-out: control in at least one of the three categories (mortality, anti-feedant effect, or growth inhibition)
Description: Example B4: Chilo suppressalis (Striped rice stemborer) 24-well microtiter plates with artificial diet were treated with aqueous test solutions prepared from 10′000 ppm DMSO stock solutions by pipetting. After drying, the plates were infested with L2 larvae (6-8 per well). The samples were assessed for mortality, anti-feeding effect, and growth inhibition in comparison to untreated samples 6 days after infestation. Control of Chilo suppressalis by a test sample is given when at least one of the categories mortality, anti-feedant effect, and growth inhibition is higher than the untreated sample.

[3] = tested on: Plutella xylostella (Diamond back moth); assay: Example B5: Plutella xylostella (Diamond back moth), artificial diet, 24-well; type: in vivo; settings: 192 h, application rate 200 ppm, eggs, 8 days after infestation, read-out: control in at least one of the two categories (mortality or growth inhibition)
Description: Example B5: Plutella xylostella (Diamond back moth)
24-well microtiter plates with artificial diet were treated with aqueous test solutions prepared from 10′000 ppm DMSO stock solutions by pipetting. After drying, Plutella eggs were pipetted through a plastic stencil onto a gel blotting paper and the plate was closed with it. The samples were assessed for mortality and growth inhibition in comparison to untreated samples 8 days after infestation.
as §1

[4] = tested on: Spodoptera littoralis (Egyptian cotton leaf worm); assay: Example B9: Spodoptera littoralis (Egyptian cotton leaf worm), sprayed cotton leaf discs; type: in vivo; settings: foliar, 72 h, application rate 200 ppm, L1 larvae, 3 days after infestation, read-out: control in at least one of the three categories (mortality, anti-feedant effect, or growth inhibition)
Description: Example B9: Spodoptera littoralis (Egyptian cotton leaf worm)
Cotton leaf discs were placed onto agar in 24-well microtiter plates and sprayed with aqueous test solutions prepared from 10′000 ppm DMSO stock solutions. After drying the leaf discs were infested with five L1 larvae. The samples were assessed for mortality, anti-feeding effect, and growth inhibition in comparison to untreated samples 3 days after infestation. Control of Spodoptera littoralis by a test sample is given when at least one of the categories mortality, anti-feedant effect, and growth inhibition is higher than the untreated sample.

[5] = tested on: Plutella xylostella (Diamondback Moth); assay: Example B13: Plutella xylostella (Diamondback Moth), artificial diet, 96-well; type: in vivo; settings: 216 h, application rate 500 ppm, eggs/L1 larvae, 9 days after infestation
Description: Example B13: Plutella xylostella (Diamondback Moth)
96-well microtiter plates containing artificial diet were treated with aqueous test solutions, prepared from 10′000 ppm DMSO stock solutions, by a liquid handling robot. After drying, eggs (-30 per well) were infested onto a netted lid which was suspended above the diet. The eggs hatch and L1 larvae move down to the diet. The samples were assessed for mortality 9 days after infestation.
The following compounds gave an effect of at least 80% mortality at an application rate of 500 ppm: […]

[6] = tested on: Euschistus heros (Neotropical Brown Stink Bug); assay: Example B2: Euschistus heros (Neotropical Brown Stink Bug), sprayed soybean leaves; type: in vivo; settings: 120 h, application rate 200 ppm, N2 nymphs, 5 days after infestation, read-out: effect in at least one of the two categories (mortality or growth inhibition)
Description: Example B2: Euschistus heros (Neotropical Brown Stink Bug)
Soybean leaves on agar in 24-well microtiter plates were sprayed with aqueous test solutions prepared from 10′000 ppm DMSO stock solutions. After drying the leaves were infested with N2 nymphs. The samples were assessed for mortality and growth inhibition in comparison to untreated samples 5 days after infestation.
The following compounds gave an effect of at least 80% in at least one of the two categories (mortality or growth inhibition) at an application rate of 200 ppm: […]

CC(NC(=O)c1cc(C(F)(F)F)nc(C2(C#N)CC2)c1)c1ncnn1-c1ccc(C#N)cn1 (centres unmarked) [P3, 2-(1-cyanocyclopropyl)-N-[1-[2-(5-cyano-2-pyridyl)-1,2,4-triazol-3-yl]ethyl]-6-(trifluoromethyl)pyridine-4-carboxamide]
≥ 80%: percent control (mortality or growth inhibition) at 200 ppm [1] | percent control (mortality, anti-feedant effect or growth inhibition) at 200 ppm [2] | percent control (mortality or growth inhibition) at 200 ppm [3] | percent control (mortality, anti-feedant effect or growth inhibition) at 200 ppm [4] | mortality at 500 ppm [5]

CC(NC(=O)c1cc(C(F)(F)F)cc(C(F)(F)C2CC2)c1)c1ncnn1-c1ncc(OC(F)F)cn1 (centres unmarked) [P6, 3-[cyclopropyl(difluoro)methyl]-N-[1-[2-[5-(difluoromethoxy)pyrimidin-2-yl]-1,2,4-triazol-3-yl]ethyl]-5-(trifluoromethyl) benzamide]
≥ 80%: percent control (mortality or growth inhibition) at 200 ppm [1] | percent effect (mortality or growth inhibition) at 200 ppm [6] | percent control (mortality, anti-feedant effect or growth inhibition) at 200 ppm [2] | percent control (mortality or growth inhibition) at 200 ppm [3] | percent control (mortality, anti-feedant effect or growth inhibition) at 200 ppm [4] | mortality at 500 ppm [5]

CC(NC(=O)c1cc(C2CC2)nc(C(F)(F)F)c1)c1ncnn1-c1ncc(OC(F)F)cn1 (centres unmarked) [P9, 2-cyclopropyl-N-[1-[2-[5-(difluoromethoxy)pyrimidin-2-yl]-1,2,4-triazol-3-yl]ethyl]-6-(trifluoromethyl) pyridine-4-carboxamide]
≥ 80%: percent control (mortality or growth inhibition) at 200 ppm [1] | percent effect (mortality or growth inhibition) at 200 ppm [6] | percent control (mortality, anti-feedant effect or growth inhibition) at 200 ppm [2] | percent control (mortality or growth inhibition) at 200 ppm [3] | percent control (mortality, anti-feedant effect or growth inhibition) at 200 ppm [4]

CC(NC(=O)c1cc(C2CC2C(F)(F)F)cc(C(F)(F)F)c1)c1ncnn1-c1ncc(OCC(F)F)cn1 (centres unmarked) [P12]
≥ 80%: percent control (mortality or growth inhibition) at 200 ppm [1] | percent effect (mortality or growth inhibition) at 200 ppm [6] | percent control (mortality, anti-feedant effect or growth inhibition) at 200 ppm [2] | percent control (mortality or growth inhibition) at 200 ppm [3] | percent control (mortality, anti-feedant effect or growth inhibition) at 200 ppm [4]

CC(NC(=O)c1cc(C2CC2)cc(C(F)(F)F)c1)c1ncnn1-c1ccc(C#N)cn1 (centres unmarked) [P14, N-[1-[2-(5-cyano-2-pyridyl)-1,2,4-triazol-3-yl]ethyl]-3-cyclopropyl-5-(trifluoromethyl)benzamide]
≥ 80%: percent control (mortality or growth inhibition) at 200 ppm [1] | percent control (mortality, anti-feedant effect or growth inhibition) at 200 ppm [2] | percent control (mortality or growth inhibition) at 200 ppm [3] | percent control (mortality, anti-feedant effect or growth inhibition) at 200 ppm [4] | mortality at 500 ppm [5]

CC(NC(=O)c1cc(C2CC2)cc(C(F)(F)F)c1)c1ncnn1-c1ncc(OC(F)F)cn1 (centres unmarked) [P21, 3-cyclopropyl-N-[1-[2-[5-(difluoromethoxy)pyrimidin-2-yl]-1,2,4-triazol-3-yl]ethyl]-5-(trifluoromethyl) benzamide]
≥ 80%: percent control (mortality or growth inhibition) at 200 ppm [1] | percent effect (mortality or growth inhibition) at 200 ppm [6] | percent control (mortality, anti-feedant effect or growth inhibition) at 200 ppm [2] | percent control (mortality or growth inhibition) at 200 ppm [3] | percent control (mortality, anti-feedant effect or growth inhibition) at 200 ppm [4]

CC(NC(=O)c1cc(C(F)(F)F)cc(S(=O)(=O)C(F)(F)F)c1)c1ncnn1-c1ncc(OC(F)F)cn1 (centres unmarked) [P27, N-[1-[2-[5-(difluoromethoxy)pyrimidin-2-yl]-1,2,4-triazol-3-yl]ethyl]-3-(trifluoromethyl)-5-(trifluoromethylsulfonyl) benzamide]
≥ 80%: percent control (mortality, anti-feedant effect or growth inhibition) at 200 ppm [2] | percent control (mortality or growth inhibition) at 200 ppm [3] | percent control (mortality, anti-feedant effect or growth inhibition) at 200 ppm [4] | mortality at 500 ppm [5]

CC(NC(=O)c1cc(C(F)(F)F)cc(S(=O)(=O)C(F)(F)F)c1)c1ncnn1-c1ccc(OC(F)F)cn1 (centres unmarked) [P28, N-[1-[2-[5-(difluoromethoxy)-2-pyridyl]-1,2,4-triazol-3-yl]ethyl]-3-(trifluoromethyl)-5-(trifluoromethylsulfonyl) benzamide]
≥ 80%: percent control (mortality, anti-feedant effect or growth inhibition) at 200 ppm [2] | percent control (mortality or growth inhibition) at 200 ppm [3] | percent control (mortality, anti-feedant effect or growth inhibition) at 200 ppm [4] | mortality at 500 ppm [5]

CC(NC(=O)c1cc(C(F)(F)F)cc(S(=O)(=O)C(F)(F)F)c1)c1ncnn1-c1ncc(OCC(F)(F)F)cn1 (centres unmarked) [P29, N-[1-[2-[5-(2,2,2-trifluoroethoxy)pyrimidin-2-yl]-1,2,4-triazol-3-yl]ethyl]-3-(trifluoromethyl)-5-(trifluoromethylsulfonyl) benzamide]
≥ 80%: percent control (mortality, anti-feedant effect or growth inhibition) at 200 ppm [2] | percent control (mortality or growth inhibition) at 200 ppm [3] | mortality at 500 ppm [5]

CC(NC(=O)c1cc(C(F)(F)F)cc(S(=O)(=O)C(F)(F)F)c1)c1ncnn1-c1ccc(OCC(F)(F)F)cn1 (centres unmarked) [P32, N-[1-[2-[5-(2,2,2-trifluoroethoxy)-2-pyridyl]-1,2,4-triazol-3-yl]ethyl]-3-(trifluoromethyl)-5-(trifluoromethylsulfonyl) benzamide]
125 to 130 °C: melting point

CC(NC(=O)c1cc(C(F)(F)F)nc(C2(C#N)CC2)c1)c1ncnn1-c1ccc(OCC(F)(F)F)cn1 (centres unmarked) [P33, 2-(1-cyanocyclopropyl)-N-[1-[2-[5-(2,2,2-trifluoroethoxy)-2-pyridyl]-1,2,4-triazol-3-yl]ethyl]-6-(trifluoromethyl) pyridine-4-carboxamide]
170 to 175 °C: melting point

CC(NC(=O)c1cc(C(F)(F)F)cc(C2(C#N)CC2)c1)c1ncnn1-c1ccc(OCC(F)(F)F)cn1 (centres unmarked) [P34, 3-(1-cyanocyclopropyl)-N-[1-[2-[5-(2,2,2-trifluoroethoxy)-2-pyridyl]-1,2,4-triazol-3-yl]ethyl]-5-(trifluoromethyl) benzamide]
70 to 75 °C: melting point

CC(NC(=O)c1cc(C(F)(F)F)cc(C(F)(F)C2CC2)c1)c1ncnn1-c1ccc(OCC(F)(F)F)cn1 (centres unmarked) [P35, 3-[cyclopropyl(difluoro)methyl]-N-[1-[2-[5-(2,2,2-trifluoroethoxy)-2-pyridyl]-1,2,4-triazol-3-yl]ethyl]-5-(trifluoromethyl) benzamide]
48 to 52 °C: melting point

CC(NC(=O)c1cc(C(F)(F)F)cc(C(F)(F)C2CC2)c1)c1ncnn1-c1ccc(OCC(F)F)cn1 (centres unmarked) [P36, 3-[cyclopropyl(difluoro)methyl]-N-[1-[2-[5-(2,2-difluoroethoxy)-2-pyridyl]-1,2,4-triazol-3-yl]ethyl]-5-(trifluoromethyl) benzamide]
105 to 110 °C: melting point

Source: patent publication US20220183294A1, “PESTICIDALLY ACTIVE AZOLE AMIDE COMPOUNDS” (SYNGENTA CROP PROTECTION AG, priority 2019, published 2022)
